From PubChem BioAssay AID248 (DTP/NCI, 2004)
Inconclusive results and toxic doses are left out. No stated cut-off is given here; in the data, active means T/C of 150% or more; inactive means T/C below 125%.

Tested on: L1210 leukemia ip in BDF1 mice, survival T/C
Assay: NCI In Vivo Anticancer Drug Screen. Data for tumor model L1210 Leukemia (intraperitoneal) in B6D2F1 (BDF1) mice
Details: endpoint: mean survival time, higher = longer survival
Method in brief: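 Mice bearing the transplanted tumor received compound or vehicle. Survival of the treated group was divided by that of the vehicle-treated control group to give the ratio.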

[1] = dose: 50.0 mg/kg/injection, schedule: Q01DX009 (ip), vehicle: Klucel (hydroxypropylcellulose) (HPC)
[2] = dose: 100.0 mg/kg/injection, schedule: Q01DX009 (ip), vehicle: Klucel (hydroxypropylcellulose) (HPC)
[3] = dose: 200.0 mg/kg/injection, schedule: Q01DX009 (ip), vehicle: Klucel (hydroxypropylcellulose) (HPC)
[4] = dose: 100.0 mg/kg/injection, schedule: Q01DX001 (ip), vehicle: saline
[5] = dose: 200.0 mg/kg/injection, schedule: Q01DX001 (ip), vehicle: saline
[6] = dose: 100.0 mg/kg/injection, schedule: Q01DX009 (ip), vehicle: saline with Tween-80
[7] = dose: 200.0 mg/kg/injection, schedule: Q01DX009 (ip), vehicle: saline with Tween-80
[8] = dose: 400.0 mg/kg/injection, schedule: Q01DX009 (ip), vehicle: saline with Tween-80
[9] = dose: 100.0 mg/kg/injection, schedule: Q04DX003 (ip), vehicle: Klucel (hydroxypropylcellulose) (HPC)
[10] = dose: 200.0 mg/kg/injection, schedule: Q04DX003 (ip), vehicle: Klucel (hydroxypropylcellulose) (HPC)
[11] = dose: 400.0 mg/kg/injection, schedule: Q04DX003 (ip), vehicle: Klucel (hydroxypropylcellulose) (HPC)

Measured: T/C

O=C1c2cscc2C(O)c2c(Cl)sc(Cl)c21 (configuration not stated)
inactive: dose: 100.0 mg/kg/injection, schedule: Q04DX002 (ip), vehicle: saline with Tween-80 101 % of control | dose: 200.0 mg/kg/injection, schedule: Q04DX002 (ip), vehicle: saline with Tween-80 97 % of control | dose: 400.0 mg/kg/injection, schedule: Q04DX002 (ip), vehicle: saline with Tween-80 89 % of control

CN(C)c1ccc(/C=N\N=C/c2ccc(N(C)C)cc2)cc1
inactive: [1] 97 % of control | [2] 93 % of control | [3] 103 % of control

N[n+]1cccc2ccccc21
inactive: [4] 93 % of control | dose: 100.0 mg/kg/injection, schedule: Q04DX003 (ip), vehicle: saline 108 % of control | [5] 108 % of control | dose: 200.0 mg/kg/injection, schedule: Q04DX003 (ip), vehicle: saline 110 % of control

CCC(=O)O[C@H]1CC[C@H]2[C@@H]3C[C@H](F)C4=CC(=O)CC[C@]4(C)[C@H]3CC[C@]12C
inactive: [6] 102 % of control | [7] 93 % of control | [8] 91 % of control

CC(C1CCCCC1)C(C#N)C(=O)NC(N)=O (configuration not stated)
inactive: dose: 50.0 mg/kg/injection, schedule: Q01DX001 (ip), vehicle: saline 97 % of control | [4] 92 % of control | [5] 95 % of control | dose: 400.0 mg/kg/injection, schedule: Q01DX001 (ip), vehicle: saline 90 % of control

CC(Br)C(=O)NC(C)C(=O)O (configuration not stated)
inactive: [6] 89 % of control | [7] 86 % of control | [8] 91 % of control

Cc1cccc(N=C2C(=O)NC(=O)NC2=O)c1
inactive: dose: 100.0 mg/kg/injection, schedule: Q01DX Z (ip), vehicle: methylcellulose (MC) 103 % of control | dose: 200.0 mg/kg/injection, schedule: Q01DX Z (ip), vehicle: methylcellulose (MC) 106 % of control

CCc1c(O)c2c(c(O)c1C(C)=O)C(=O)c1c(cc(O)c(C(=O)O)c1C(=O)O)C2=O
inactive: dose: 100.0 mg/kg/injection, schedule: Q04DX003 (ip), vehicle: saline with Tween-80 100 % of control | dose: 200.0 mg/kg/injection, schedule: Q04DX003 (ip), vehicle: saline with Tween-80 100 % of control

CC1=NNC(=O)C1Br (configuration not stated)
inactive: dose: 100.0 mg/kg/injection, schedule: Q01DX001 (ip), vehicle: carboxymethylcellulose (CMC) 105 % of control | dose: 200.0 mg/kg/injection, schedule: Q01DX001 (ip), vehicle: carboxymethylcellulose (CMC) 102 % of control | dose: 400.0 mg/kg/injection, schedule: Q01DX001 (ip), vehicle: carboxymethylcellulose (CMC) 100 % of control

CCCCCCCCCCCCCCCCN(C(C)c1ccccc1)S(=O)(=O)c1ccc(OC)c(N)c1 (configuration not stated)
inactive: dose: 100.0 mg/kg/injection, schedule: Q01DX001 (ip), vehicle: Klucel (hydroxypropylcellulose) (HPC) 93 % of control | [2] 94 % of control | [9] 98 % of control | dose: 200.0 mg/kg/injection, schedule: Q01DX001 (ip), vehicle: Klucel (hydroxypropylcellulose) (HPC) 88 % of control | [3] 94 % of control | [10] 98 % of control | dose: 400.0 mg/kg/injection, schedule: Q01DX001 (ip), vehicle: Klucel (hydroxypropylcellulose) (HPC) 88 % of control | dose: 400.0 mg/kg/injection, schedule: Q01DX009 (ip), vehicle: Klucel (hydroxypropylcellulose) (HPC) 95 % of control | [11] 98 % of control

O=C(Nc1cccc(Cl)c1)c1ccc(Cl)c(Cl)c1
inactive: dose: 100.0 mg/kg/injection, schedule: Q04DX002 (ip), vehicle: Klucel (hydroxypropylcellulose) (HPC) 110 % of control | dose: 200.0 mg/kg/injection, schedule: Q04DX002 (ip), vehicle: Klucel (hydroxypropylcellulose) (HPC) 113 % of control | dose: 400.0 mg/kg/injection, schedule: Q04DX002 (ip), vehicle: Klucel (hydroxypropylcellulose) (HPC) 93 % of control

O=C1c2ccccc2C2NCCCN12 (configuration not stated)
inactive: dose: 100.0 mg/kg/injection, schedule: Q01DX009 (ip), vehicle: saline 102 % of control | dose: 200.0 mg/kg/injection, schedule: Q01DX009 (ip), vehicle: saline 100 % of control | dose: 400.0 mg/kg/injection, schedule: Q01DX009 (ip), vehicle: saline 96 % of control

CCOc1c(Br)cc(Br)cc1/C=N/NS(=O)(=O)c1ccc(C)cc1
inactive: [1] 103 % of control | [2] 105 % of control | [9] 101 % of control | [10] 109 % of control | [11] 92 % of control
